According to PubChem BioAssay (NCI):
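All cell lines were grown in 96-well plates and treated with compound for 48 hours. The concentration for 50% growth inhibition is given as GI50. TGI denotes the concentration required for complete inhibition of growth.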

Experiments:
Experiment in all cases: inhibition of tumour cell growth, NCI panel, 48 h; in the data active = GI50 below about 0.43 µM; inactive = the rest
NCI/ADR-RES ovarian = tested on: NCI/ADR-RES ovarian
CAKI-1 renal = tested on: CAKI-1 renal
M14 melanoma = tested on: M14 melanoma
NCI-H460 lung = tested on: NCI-H460 lung
SNB-75 CNS = tested on: SNB-75 CNS
MOLT-4 leukemia = tested on: MOLT-4 leukemia
SK-MEL-5 melanoma = tested on: SK-MEL-5 melanoma
UO-31 renal = tested on: UO-31 renal
HCC-2998 colon = tested on: HCC-2998 colon
MDA-MB-231 breast = tested on: MDA-MB-231 breast
IGROV1 ovarian = tested on: IGROV1 ovarian
HOP-92 NSCLC = tested on: HOP-92 NSCLC
OVCAR-5 ovarian = tested on: OVCAR-5 ovarian
HS 578T breast = tested on: HS 578T breast
HOP-62 NSCLC = tested on: HOP-62 NSCLC
786-0 renal = tested on: 786-0 renal
EKVX NSCLC = tested on: EKVX NSCLC
SF-539 CNS = tested on: SF-539 CNS
PC-3 prostate = tested on: PC-3 prostate
MDA-MB-435 = tested on: MDA-MB-435
SW-620 colon = tested on: SW-620 colon
NCI-H23 lung = tested on: NCI-H23 lung
MALME-3M melanoma = tested on: MALME-3M melanoma
SK-MEL-28 melanoma = tested on: SK-MEL-28 melanoma
K-562 leukemia = tested on: K-562 leukemia
ACHN renal = tested on: ACHN renal
TK-10 renal = tested on: TK-10 renal
LOX IMVI melanoma = tested on: LOX IMVI melanoma
HCT-116 colon = tested on: HCT-116 colon
U251 CNS = tested on: U251 CNS
SF-268 CNS = tested on: SF-268 CNS
SK-MEL-2 melanoma = tested on: SK-MEL-2 melanoma
OVCAR-3 ovarian = tested on: OVCAR-3 ovarian
T-47D breast = tested on: T-47D breast
HT29 colon = tested on: HT29 colon
HCT-15 colon = tested on: HCT-15 colon
HL-60(TB) leukemia = tested on: HL-60(TB) leukemia
A498 renal = tested on: A498 renal
RXF 393 renal = tested on: RXF 393 renal
A549 NSCLC = tested on: A549 NSCLC
CCRF-CEM leukemia = tested on: CCRF-CEM leukemia
SK-OV-3 ovarian = tested on: SK-OV-3 ovarian
DU-145 prostate = tested on: DU-145 prostate
SF-295 CNS = tested on: SF-295 CNS
NCI-H522 lung = tested on: NCI-H522 lung
SR leukemia = tested on: SR leukemia
OVCAR-8 ovarian = tested on: OVCAR-8 ovarian
SNB-19 CNS = tested on: SNB-19 CNS
RPMI-8226 leukemia = tested on: RPMI-8226 leukemia
MDA-N = tested on: MDA-N
OVCAR-4 ovarian = tested on: OVCAR-4 ovarian
UACC-257 melanoma = tested on: UACC-257 melanoma
MCF7 breast = tested on: MCF7 breast
COLO 205 colon = tested on: COLO 205 colon
SN12C renal = tested on: SN12C renal
NCI-H226 lung = tested on: NCI-H226 lung
KM12 colon = tested on: KM12 colon
UACC-62 melanoma = tested on: UACC-62 melanoma
BT-549 breast = tested on: BT-549 breast

O=c1oc2cccnc2n1CCN1CCN(c2ccc(Oc3ccccc3)cc2)CC1
75.4 µM: TGI (OVCAR-4 ovarian)
> 100 µM: TGI (NCI/ADR-RES ovarian) | TGI (CAKI-1 renal) | TGI (M14 melanoma) | TGI (NCI-H460 lung) | TGI (SNB-75 CNS) | TGI (MOLT-4 leukemia) | TGI (SK-MEL-5 melanoma) | TGI (UO-31 renal) | TGI (HCC-2998 colon) | TGI (MDA-MB-231 breast) | TGI (IGROV1 ovarian) | TGI (HOP-92 NSCLC) | TGI (OVCAR-5 ovarian) | TGI (HS 578T breast) | TGI (HOP-62 NSCLC) | TGI (786-0 renal) | TGI (EKVX NSCLC) | TGI (SF-539 CNS) | TGI (PC-3 prostate) | TGI (MDA-MB-435) | TGI (SW-620 colon) | TGI (NCI-H23 lung) | TGI (MALME-3M melanoma) | TGI (SK-MEL-28 melanoma) | TGI (K-562 leukemia) | TGI (ACHN renal) | TGI (TK-10 renal) | TGI (LOX IMVI melanoma) | TGI (HCT-116 colon) | TGI (U251 CNS) | TGI (SF-268 CNS) | TGI (SK-MEL-2 melanoma) | TGI (OVCAR-3 ovarian) | TGI (T-47D breast) | TGI (HT29 colon) | TGI (HCT-15 colon) | TGI (A498 renal) | TGI (RXF 393 renal) | TGI (A549 NSCLC) | TGI (CCRF-CEM leukemia) | TGI (SK-OV-3 ovarian) | TGI (DU-145 prostate) | TGI (SF-295 CNS) | TGI (NCI-H522 lung) | TGI (SR leukemia) | TGI (OVCAR-8 ovarian) | TGI (SNB-19 CNS) | TGI (RPMI-8226 leukemia) | TGI (MDA-N) | TGI (UACC-257 melanoma) | TGI (MCF7 breast)
86.4 µM: TGI (HL-60(TB) leukemia)

COc1cc(OC)c2cc(C(=O)O)c(=O)oc2c1
inactive: GI50 (NCI/ADR-RES ovarian) > 100 µM | GI50 (CAKI-1 renal) 61.4 µM | GI50 (COLO 205 colon) > 100 µM | GI50 (M14 melanoma) > 100 µM | GI50 (NCI-H460 lung) > 100 µM | GI50 (SNB-75 CNS) > 100 µM | GI50 (MOLT-4 leukemia) > 100 µM | GI50 (SK-MEL-5 melanoma) > 100 µM | GI50 (UO-31 renal) > 61.7 µM | GI50 (HCC-2998 colon) > 100 µM | GI50 (MDA-MB-231 breast) > 100 µM | GI50 (IGROV1 ovarian) > 84.9 µM | GI50 (HOP-92 NSCLC) > 100 µM | GI50 (OVCAR-5 ovarian) > 100 µM | GI50 (SN12C renal) > 100 µM | GI50 (HOP-62 NSCLC) > 100 µM | GI50 (786-0 renal) > 95.4 µM | GI50 (EKVX NSCLC) > 100 µM | GI50 (NCI-H226 lung) > 100 µM | GI50 (SF-539 CNS) > 96.2 µM | GI50 (PC-3 prostate) > 100 µM | GI50 (MDA-MB-435) > 100 µM | GI50 (SW-620 colon) > 100 µM | GI50 (NCI-H23 lung) > 100 µM | GI50 (MALME-3M melanoma) > 100 µM | GI50 (SK-MEL-28 melanoma) > 29.5 µM | GI50 (K-562 leukemia) > 100 µM | GI50 (ACHN renal) > 100 µM | GI50 (TK-10 renal) > 74.5 µM | GI50 (LOX IMVI melanoma) > 100 µM | GI50 (HCT-116 colon) > 100 µM | GI50 (U251 CNS) > 100 µM | GI50 (SF-268 CNS) > 100 µM | GI50 (SK-MEL-2 melanoma) > 35.6 µM | GI50 (OVCAR-3 ovarian) > 100 µM | GI50 (T-47D breast) > 100 µM | GI50 (HT29 colon) > 100 µM | GI50 (HCT-15 colon) > 100 µM | GI50 (HL-60(TB) leukemia) > 100 µM | GI50 (A498 renal) > 21.4 µM | GI50 (RXF 393 renal) > 100 µM | GI50 (A549 NSCLC) > 100 µM | GI50 (CCRF-CEM leukemia) > 100 µM | GI50 (SK-OV-3 ovarian) > 100 µM | GI50 (DU-145 prostate) > 100 µM | GI50 (SF-295 CNS) 42.2 µM | GI50 (NCI-H522 lung) > 71.5 µM | GI50 (SR leukemia) > 100 µM | GI50 (KM12 colon) > 100 µM | GI50 (UACC-62 melanoma) > 71.8 µM | GI50 (BT-549 breast) > 100 µM | GI50 (OVCAR-8 ovarian) > 100 µM | GI50 (SNB-19 CNS) > 100 µM | GI50 (RPMI-8226 leukemia) 6.1 µM | GI50 (OVCAR-4 ovarian) > 100 µM | GI50 (UACC-257 melanoma) > 85.9 µM | GI50 (MCF7 breast) > 100 µM
> 53.8 µM: TGI (SK-MEL-2 melanoma)
> 100 µM: TGI (NCI/ADR-RES ovarian) | TGI (CAKI-1 renal) | TGI (COLO 205 colon) | TGI (M14 melanoma) | TGI (NCI-H460 lung) | TGI (SNB-75 CNS) | TGI (MOLT-4 leukemia) | TGI (SK-MEL-5 melanoma) | TGI (UO-31 renal) | TGI (HCC-2998 colon) | TGI (MDA-MB-231 breast) | TGI (IGROV1 ovarian) | TGI (HOP-92 NSCLC) | TGI (OVCAR-5 ovarian) | TGI (SN12C renal) | TGI (HOP-62 NSCLC) | TGI (786-0 renal) | TGI (EKVX NSCLC) | TGI (NCI-H226 lung) | TGI (SF-539 CNS) | TGI (PC-3 prostate) | TGI (MDA-MB-435) | TGI (SW-620 colon) | TGI (NCI-H23 lung) | TGI (MALME-3M melanoma) | TGI (SK-MEL-28 melanoma) | TGI (K-562 leukemia) | TGI (ACHN renal) | TGI (TK-10 renal) | TGI (LOX IMVI melanoma) | TGI (HCT-116 colon) | TGI (U251 CNS) | TGI (SF-268 CNS) | TGI (OVCAR-3 ovarian) | TGI (T-47D breast) | TGI (HT29 colon) | TGI (HCT-15 colon) | TGI (HL-60(TB) leukemia) | TGI (RXF 393 renal) | TGI (A549 NSCLC) | TGI (CCRF-CEM leukemia) | TGI (SK-OV-3 ovarian) | TGI (DU-145 prostate) | TGI (SF-295 CNS) | TGI (NCI-H522 lung) | TGI (SR leukemia) | TGI (KM12 colon) | TGI (UACC-62 melanoma) | TGI (BT-549 breast) | TGI (OVCAR-8 ovarian) | TGI (SNB-19 CNS) | TGI (OVCAR-4 ovarian) | TGI (UACC-257 melanoma) | TGI (MCF7 breast)
> 51.4 µM: TGI (HS 578T breast)
> 75 µM: TGI (A498 renal)
> 36.2 µM: TGI (RPMI-8226 leukemia)
